Measured values taken from patent publication US20040209799A1, “JAK/STAT pathway inhibitors and the uses thereof” (priority 2000, published 2004).

What was measured:
[1] = target: BTK (Bruton's agarnrnaglobulinaemia tyrosine kinase) (Homo sapiens, UniProt Q06187); assay: poly (Glu, Tyr) 4:1 ELISA, BTK; assay type: biochemical
Protocol: (§1) To further examine the inhibition characteristics of DBH (and its variants) to a variety of cellular components, a poly (Glu, Tyr) 4:1 ELISA was performed. Hymenialdisine (H), DBH (as marine sponge extracts: see Chipman and Faulkner, 1997), and three variant forms of synthetic DBH: the free base form of DBH (DBH-2FB), a trifluoroacetic acid salt form of DBH (DBH-2S), and a methanesulfonic acid salt form of DBH (DBH 1) were solubilized in DMSO, and tested for the ability to inhibit; ZAP-70 (ζ-associated polypeptide of 70 kDa) protein tyrosine kinase, BTK (Bruton's agarnrnaglobulinaemia tyrosine kinase), JAK3 (Janus kinase 3) protein tyrosine kinase, LCK (Lymphoid T-cell protein tyrosine kinase), and IGFR (Insulin-like growth factor receptor) protein tyrosine kinase.
(§2) Maxisorb microtiter plates (Nalge Nunc International, Rochester, N.Y.) were coated with 1 mg/ml Poly(Glu,Tyr) 4:1 (Sigma, St. Louis, Mo.) solubilized in phosphate buffered saline (PBS), 0.02% sodium azide. On the day of the assay, microtiter plates were washed 4× with TBS-Tween (25 mM Tris pH 8.0, 150 mM NaCl, 0.05% Tween 20) using a Skatron plate washer (Skatron Instruments, Sterling, Va.). 200 μl of sterile blocking buffer (3% BSA in PBS, 0.02% sodium azide) was added to each well, and the microtiter plates were incubated at 37° C. for 1 hour. The blocking buffer was removed, the plates washed, and various concentrations of inhibitor were added in a 20 μl volume to the wells. 60 μl of the appropriate substrate mix was then added. Substrate mixes were prepared as described in Table 2:
(§3) Following addition of the substrate mix, 20 μl of the test protein tyrosine kinase (in 1× assay buffer) was added. Kinase reactions were incubated 30 min at 37° C., followed by washes in the Skatron plate washer. 100 μl of biotinylated PT-66 anti-phosphotyrosine monoclonal antibody (Sigma, St. Louis, Mo.) (diluted 1:4000 in 0.5% BSA, sterile-filtered TBS) was added to each well, and incubated for an additional 30 minutes at 37° C. […] The samples were then read at 450 nm in a plate reader.

[2] = target: IGFR (Insulin-like growth factor receptor) protein tyrosine kinase (Homo sapiens, UniProt P08069); assay: poly (Glu, Tyr) 4:1 ELISA, IGFR; assay type: biochemical
Sequence of IGFR (Insulin-like growth factor receptor) protein tyrosine kinase (P08069 31-1367): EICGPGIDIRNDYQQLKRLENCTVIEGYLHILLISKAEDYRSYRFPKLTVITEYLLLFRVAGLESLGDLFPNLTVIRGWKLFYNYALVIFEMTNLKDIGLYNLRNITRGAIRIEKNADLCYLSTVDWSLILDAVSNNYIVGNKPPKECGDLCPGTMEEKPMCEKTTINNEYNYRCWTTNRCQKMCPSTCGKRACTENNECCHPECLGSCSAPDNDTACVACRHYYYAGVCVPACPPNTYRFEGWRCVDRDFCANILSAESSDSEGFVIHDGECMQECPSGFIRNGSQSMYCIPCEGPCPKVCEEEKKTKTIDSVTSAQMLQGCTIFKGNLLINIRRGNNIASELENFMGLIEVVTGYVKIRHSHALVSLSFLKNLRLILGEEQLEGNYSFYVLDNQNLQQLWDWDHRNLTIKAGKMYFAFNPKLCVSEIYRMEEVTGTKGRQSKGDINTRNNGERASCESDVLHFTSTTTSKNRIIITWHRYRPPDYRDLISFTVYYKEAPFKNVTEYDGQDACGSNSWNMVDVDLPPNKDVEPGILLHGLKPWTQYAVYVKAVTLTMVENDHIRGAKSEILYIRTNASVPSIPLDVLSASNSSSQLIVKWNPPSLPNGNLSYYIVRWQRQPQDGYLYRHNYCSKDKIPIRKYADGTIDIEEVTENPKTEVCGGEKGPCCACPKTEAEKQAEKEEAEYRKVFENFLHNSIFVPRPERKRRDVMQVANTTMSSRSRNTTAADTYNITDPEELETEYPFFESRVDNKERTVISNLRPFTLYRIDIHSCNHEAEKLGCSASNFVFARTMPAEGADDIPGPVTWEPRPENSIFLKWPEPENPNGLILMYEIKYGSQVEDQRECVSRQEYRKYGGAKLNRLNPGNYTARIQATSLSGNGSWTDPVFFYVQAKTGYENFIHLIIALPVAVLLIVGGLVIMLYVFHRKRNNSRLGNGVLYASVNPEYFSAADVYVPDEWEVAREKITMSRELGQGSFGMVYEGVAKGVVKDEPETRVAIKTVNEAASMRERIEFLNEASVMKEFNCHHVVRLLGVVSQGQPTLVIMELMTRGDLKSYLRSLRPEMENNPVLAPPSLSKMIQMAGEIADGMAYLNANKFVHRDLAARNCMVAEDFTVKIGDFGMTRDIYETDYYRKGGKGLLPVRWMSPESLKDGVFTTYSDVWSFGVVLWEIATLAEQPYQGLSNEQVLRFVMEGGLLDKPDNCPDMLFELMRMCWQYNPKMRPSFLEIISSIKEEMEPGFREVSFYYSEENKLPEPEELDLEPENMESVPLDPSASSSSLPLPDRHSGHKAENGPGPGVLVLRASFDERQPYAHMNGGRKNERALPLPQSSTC
Protocol: as §1, §2, §3

[3] = ec-50 values ranging from hundreds of micromolar to no inhibition (data not shown)

Sequence of BTK (Bruton's agarnrnaglobulinaemia tyrosine kinase) (Q06187 whole entry, species assumed): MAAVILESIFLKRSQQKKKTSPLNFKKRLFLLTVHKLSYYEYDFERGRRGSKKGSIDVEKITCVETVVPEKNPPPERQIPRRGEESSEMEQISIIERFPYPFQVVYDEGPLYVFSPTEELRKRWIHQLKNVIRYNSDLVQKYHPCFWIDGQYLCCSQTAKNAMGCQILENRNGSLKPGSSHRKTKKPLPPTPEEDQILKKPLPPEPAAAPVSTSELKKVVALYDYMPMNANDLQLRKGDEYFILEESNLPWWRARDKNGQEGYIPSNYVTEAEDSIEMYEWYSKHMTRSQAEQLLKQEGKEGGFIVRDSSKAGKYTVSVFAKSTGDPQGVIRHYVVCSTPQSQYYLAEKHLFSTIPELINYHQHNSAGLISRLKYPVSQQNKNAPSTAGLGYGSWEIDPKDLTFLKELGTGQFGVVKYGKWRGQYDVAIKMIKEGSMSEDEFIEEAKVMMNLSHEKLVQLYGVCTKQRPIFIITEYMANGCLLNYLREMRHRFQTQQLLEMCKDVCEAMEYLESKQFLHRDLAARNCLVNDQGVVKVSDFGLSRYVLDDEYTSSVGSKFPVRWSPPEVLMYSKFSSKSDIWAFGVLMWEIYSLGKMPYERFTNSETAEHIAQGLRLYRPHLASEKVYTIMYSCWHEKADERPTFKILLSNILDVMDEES

Structure (SMILES) | Inhibition of BTK [1, 3] | Inhibition of IGFR [2, 3] | IC50 ([1]; values for the four kinases range from 1971 μM to no inhibition, read-out: α-50 value for BTK) [µM] | IC50 ([2]; values for the four kinases range from 1971 μM to no inhibition, read-out: α-50 value for IGFR) [µM]
NC1=NC(=O)C(=C2CCNC(=O)c3[nH]ccc32)N1 [DBH, 4-(2-amino-4-oxo-2-imidazolin-5-ylidene)-4,5,6,7-tetrahydropyrrolo(2,3-c) azepine-8-one] | weak | weak |  | 
NC1=NC(=O)C(=C2CCNC(=O)c3[nH]ccc32)N1 [DBH-2FB] |  |  | ≥ 1970 | ≥ 1970
